Measurements reported in patent US11352352B2, “Aminopyrimidine compound, preparation method therefor and use thereof” (BEIJING ADAMADLE BIOTECHNOLOGY LIMITED LIABILITY COMPANY, priority 2017, dated 2022).

Key:
Assay in all cases: Cell proliferation inhibition experiment, CellTiter-Glo (CTG) method
Type in all cases: cell-based
[1] = system: NCI-H1975; conditions: for IC50: Homo sapiens, NCI-H1975, 72 h, NCI-H1975 cells, CTG, 3 days; for A-431/NCI-H1975 Selectivity: ratio of A-431 IC50 to NCI-H1975 IC50
Method in brief: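 NCI-H1975 cells with viability above 90% by trypan blue were seeded at 90 μL per well in black 96-well plates and incubated overnight at 37° C., 5% CO2. Compounds were added at nine concentrations in triplicate, and viability was measured with CellTiter-Glo luminescence on EnVision. IC50 came from non-linear S-curve fitting in GraphPad Prism 5.0.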

[2] = system: PC-9; conditions: Homo sapiens, PC-9, 72 h, PC-9 cells, 3 days
Method in brief: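 Cells in log-phase growth (viability above 90% by trypan blue) were seeded at 90 μL per well in black-walled, clear-bottom 96-well plates and incubated overnight at 37° C., 5% CO2. A T0 plate was read the next day. Test compounds were added at nine concentrations in triplicate with a solvent control. Viability was measured by CellTiter-Glo luminescence on EnVision, and IC50 came from non-linear S-curve fitting in GraphPad Prism 5.0.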

[3] = system: A-431; conditions: Homo sapiens, A-431, 72 h, A-431 cells, 3 days
Method in brief: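 IC50 values come from sigmoidal dose-response fits of percent survival, measured by CellTiter-Glo luminescence after 3 days' culture with compound. Nine-point, threefold series in triplicate, starting at 30 μM for A-431 and at 1.111 μM for NCI-H1975 and PC-9.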

IC50 [1] | IC50 [2] | IC50 [3] | Compound | A-431/NCI-H1975 Selectivity [1]
8.4 nM | 23.1 nM | 539 nM | C=CC(=O)Nc1cc(Nc2cc(-c3ccc4c(cnn4C)c3)ncn2)c(OC(F)F)cc1N(C)CCN(C)CC [compound 141] | 64.2
99.4 nM | 87.4 nM | 3220 nM | C=CC(=O)Nc1cc(Nc2nccc(-c3ccc4c(cnn4C)c3)n2)c(OC)cc1N1C[C@@H](C)N[C@@H](C)C1 [compound 280] | 32.4
13.1 nM | 5.4 nM | 690 nM | C=CC(=O)Nc1cc(Nc2cc(-c3ccc4ncsc4c3)ncn2)c(OC)cc1N1CCC(N2CCN(C)CC2)CC1 [compound 64] | 52.6
102 nM | 32.8 nM | 1600 nM | C=CC(=O)Nc1cc(Nc2cc(-c3ccc4cnn(C)c4c3)ncn2)c(OC)cc1N1CCN(C)C[C@H]1C [compound 44] | 15.7
67.4 nM | 21.8 nM | 2140 nM | C=CC(=O)Nc1cc(Nc2cc(-c3ccc4c(cnn4C)c3)ncn2)c(OC)cc1C1CCN(C)CC1 [compound 11] | 31.7
54.7 nM | 67.8 nM | 736 nM | C=CC(=O)Nc1cc(Nc2cc(-c3ccc4c(cnn4C)c3)ncn2)c(OC)cc1N1C[C@@H]2C[C@H]1CN2C [compound 25] | 13.5
114 nM | 55.9 nM | 2790 nM | C=CC(=O)Nc1cc(Nc2cc(-c3ccc4cnn(C)c4c3)ncn2)c(OC)cc1OCCN(C)C(C)C [compound 188] | 24.5
21.7 nM | 44.5 nM | 1820 nM | C=CC(=O)Nc1cc(Nc2nccc(-c3ccc4c(cnn4C)c3)n2)c(OC)cc1OCCN(C)C [compound 237] | 84.1
22.9 nM | 211 nM | 1040 nM | C=CC(=O)Nc1cc(Nc2nccc(-c3ccc4c(cnn4C)c3)n2)c(OC)cc1N(C)CCN(C)CC [compound 241] | 45.3
33 nM | 67.9 nM | 1580 nM | C=CC(=O)Nc1cc(Nc2nccc(-c3ccc4c(cnn4C)c3)n2)c(OC)cc1N(C)CCN(CC)CC [compound 239] | 47.8
26.3 nM | 13.4 nM | 670 nM | C=CC(=O)Nc1cc(Nc2cc(-c3ccc4c(cnn4C)c3)ncn2)c(OC)cc1N1CCC(N(C)C)C1 (stereo not drawn) [compound 284] | 25.5
16.9 nM | 13.6 nM | 1400 nM | C=CC(=O)Nc1cc(Nc2cc(-c3ccc4cnn(C)c4c3)ncn2)c(OC)cc1N1CCN(C2CCC(OC)C2)CC1 (stereo not drawn) [compound 217] | 82.8
14.6 nM | 17.9 nM | 778 nM | C=CC(=O)Nc1cc(Nc2cc(-c3ccc4c(cnn4C)c3)ncn2)c(OC)cc1N1CCN(CC2CC2)CC1 [compound 105] | 53.3
114 nM | 77.6 nM | 1960 nM | C=CC(=O)Nc1cc(Nc2cc(-c3ccc4c(cnn4C(C)C)c3)ncn2)c(OC)cc1N(C)C1CCN(C2CCN(C)CC2)CC1 [compound 87] | 17.2
65.3 nM | 50.4 nM | 1030 nM | C=CC(=O)Nc1cc(Nc2cc(-c3ccc4cnn(C)c4c3)ncn2)c(OC)cc1N(C)C1CCCN(C)C1 (stereo not drawn) [compound 73] | 15.7
93.8 nM | 68.1 nM | 1620 nM | C=CC(=O)Nc1cc(Nc2nccc(-c3ccc4c(cnn4C)c3)n2)c(OC)cc1N1C[C@@H](C)N(C)[C@@H](C)C1 [compound 229] | 17.3
59.2 nM | 47.5 nM | 1080 nM | C=CC(=O)Nc1cc(Nc2cc(-c3ccc4cnn(C)c4c3)ncn2)c(OC)cc1N1CCN(C)[C@@H](C)C1 [compound 50] | 18.2
5.6 nM | 3.9 nM | 302 nM | C=CC(=O)Nc1cc(Nc2cc(-c3cc4cnn(C)c4cc3F)ncn2)c(OC)cc1N(C)CCN(C)C [compound 5] | 
49.4 nM | 45.9 nM | 2510 nM | C=CC(=O)Nc1cc(Nc2cc(-c3ccc4cnn(C)c4c3)ncn2)c(OC)cc1N1CCN(C2COC2)CC1 [compound 219] | 50.8
23.5 nM | 15.4 nM | 1330 nM | C=CC(=O)Nc1cc(Nc2cc(-c3ccc4cnn(C)c4c3)ncn2)c(OC(F)F)cc1N1CCC(N(C)C)CC1 [compound 174] | 56.4

IC50 [1] | IC50 [2] | IC50 [3] | Compound | A-431/NCI-H1975 Selectivity [1]
17.4 nM | 19.9 nM | 1030 nM | C=CC(=O)Nc1cc(Nc2cc(-c3ccc4cnn(C)c4c3)ncn2)c(OC(F)F)cc1N1CCC(N2CCOCC2)CC1 [compound 161] | 59.3
65.7 nM | 35.7 nM | 1580 nM | C=CC(=O)Nc1cc(Nc2nccc(-c3ccc4c(cnn4C)c3)n2)c(OC)cc1N1CCN(C)CC1 [compound 228] | 24.1
36.4 nM | 20.7 nM | 2020 nM | C=CC(=O)Nc1cc(Nc2cc(-c3ccc4cnn(C)c4c3)ncn2)c(OC)cc1N(C)CCN(C)C(C)C [compound 196] | 55.4
18.1 nM | 10.7 nM | 850 nM | C=CC(=O)Nc1cc(Nc2cc(-c3ccc4c(cnn4C)c3)ncn2)c(OC)cc1N1CCN(C(C)C)CC1 [compound 19] | 47.0
26.2 nM | 38 nM | 743 nM | C=CC(=O)Nc1cc(Nc2cc(-c3ccc4c(cnn4C)c3)ncn2)c(OC(F)F)cc1OCCN(C)C [compound 171] | 28.4
32.2 nM | 3.6 nM | 586 nM | C=CC(=O)Nc1cc(Nc2cc(-c3ccc4cnn(C)c4c3)ncn2)c(OC)cc1N1CCC(N2CCOCC2)CC1 [compound 55] | 
60.7 nM | 55.4 nM | 2430 nM | C=CC(=O)Nc1cc(Nc2cc(-c3ccc4c(cnn4C)c3)ncn2)c(OC)cc1N(C)C1CCN(C2CCOCC2)CC1 [compound 220] | 40.1
76.1 nM | 50.2 nM | 2570 nM | C=CC(=O)Nc1cc(Nc2cc(-c3ccc4c(cnn4C)c3)ncn2)c(OC)cc1OCCN(C)C(C)C [compound 186] | 33.7
62.2 nM | 47.2 nM | 1320 nM | C=CC(=O)Nc1cc(Nc2cc(-c3ccc4c(cnn4CC)c3)ncn2)c(OCC)cc1N1C[C@@H](C)N(C)[C@@H](C)C1 [compound 91] | 21.3
15.7 nM | 15.8 nM | 891 nM | C=CC(=O)Nc1cc(Nc2cc(-c3ccc4c(cnn4C)c3)ncn2)c(OC)cc1N1CCC(N2CCC(OC)CC2)CC1 [compound 204] | 56.7
25.1 nM | 2.7 nM | 1240 nM | C=CC(=O)Nc1cc(Nc2cc(-c3ccc4cnn(C)c4c3)ncn2)c(OC)cc1N1CCC(N2C[C@@H](C)N(C)[C@@H](C)C2)CC1 [compound 156] | 49.5
53.1 nM | 56.9 nM | 4130 nM | C=CC(=O)Nc1cc(Nc2cc(-c3ccc4c(cnn4C)c3)ncn2)c(OC)cc1C(=O)N1CCN(C)CC1 [compound 12] | 77.7
62 nM | 110 nM | 2980 nM | C=CC(=O)Nc1cc(Nc2nccc(-c3ccc4c(cnn4CC)c3)n2)c(OC)cc1N(C)CCN(CC)CC [compound 240] | 48.0
67.2 nM | 77.9 nM | 1520 nM | C=CC(=O)Nc1cc(Nc2cc(-c3ccc4c(cnn4C(C)C)c3)ncn2)c(OC)cc1N1C[C@@H](C)N(C)[C@@H](C)C1 [compound 83] | 22.6
103 nM | 70.7 nM | 1370 nM | C=CC(=O)Nc1cc(Nc2cc(-c3ccc4ncsc4c3)ncn2)c(OC)cc1N(C)CCN1CCN(C2CC2)CC1 [compound 128] | 13.2
8.8 nM | 6.9 nM | 1130 nM | C=CC(=O)Nc1cc(Nc2cc(-c3ccc4c(cnn4C)c3)ncn2)c(OC)cc1NCCN(C)C [compound 58] | 
4.1 nM | 6.5 nM | 540 nM | C=CC(=O)Nc1cc(Nc2cc(-c3ccc4ncsc4c3)ncn2)c(OC)cc1N(C)CCN(C)C [compound 63] | 130.7
14.2 nM | 27 nM | 984 nM | C=CC(=O)Nc1c(N(C)CCN(C)CC)cc(OC)c(Nc2cc(-c3ccc4c(cnn4C)c3)ncn2)c1F [compound 200] | 
71.3 nM | 44.9 nM | 4580 nM | C=CC(=O)Nc1cc(Nc2cc(-c3ccc4c(cnn4C)c3)ncn2)c(OC)cc1CN1CCN(C)CC1 [compound 294] | 64.2
20.4 nM | 10.6 nM | 612 nM | C=CC(=O)Nc1cc(Nc2cc(-c3ccc4cnn(C)c4c3)ncn2)c(OC)cc1N1CCN(C)C(C)C1 (stereo not drawn) [compound 41] | 30.0
